# Publication PMC9706574, “A Versatile and Sustainable Multicomponent Platform for the Synthesis of Protein Degraders: Proof-of-Concept Application to BRD4-Degrading PROTACs” (Journal of Medicinal Chemistry, 2022)
# Marks after values point to notes of the source that are not given here.
# Columns and labels:
# [1] = Thermodynamic aqueous solubility; format: physicochemical
# Description: Saturated solutions were prepared by dissolving the tested compounds in 0.1 M phosphate-buffered saline (pH = 7.4) or 0.01 N HCl solutions and sonicated for 30 s. After equilibration on an orbital shaker at 25 °C for 2 h, the solutions were centrifuged at 13 000 rpm for 5 min and filtered through a 0.2 μm regenerated cellulose (RC) syringe filter. A 400 μL aliquot of each filtrate was diluted with 100 μL of acetonitrile and analyzed by LC-UV. When the measured peak area was out of the calibration range (5–100 μM), the sample was further diluted in water–acetonitrile 1:1 mixture.
# [2] = Metabolic stability in mouse liver microsomes (MLM); format: in vitro ADME
# Description: To this aim, we evaluated the metabolic stability of the five selected PROTACs in mouse liver microsomes (MLM).
# Mouse liver microsomes (MLM) (pooled male mouse CD-1, protein concentration: 20 mg/mL) were purchased from Corning B.V. Life Sciences (Amsterdam, The Netherlands). The standard incubation mixture (250 μL final volume) was carried out in a 50 mM Tris (tris[hydroxymethyl]aminomethane) buffer (pH 7.4) containing 150 mM KCl, 1.5 mM, 3.3 mM MgCl2, 1.3 mM NADPNa2, 3.3 mM glucose 6-phosphate, 0.4 units/mL glucose 6-phosphate dehydrogenase, acetonitrile as cosolvent (1% of total volume), and the substrate (50 μM). After pre-equilibration of the mixture, an appropriate volume of MLM suspension was added to give a final protein concentration of 1.0 mg/mL. The mixture was shaken for 60 min at 37 °C. Control incubations were carried out without the presence of an NADPH-regenerating system or microsomes. Each incubation was stopped by the addition of 250 μL of ice-cold acetonitrile, vortexed, and centrifuged at 13 000 rpm for 5 min. The supernatants were analyzed by LC-UV.
# [3] = set-up: method as in PMID 33026811; details: physiological pH, in 3 h; cited from earlier work
# [4] = molecular target: T1, BRD4 (Homo sapiens, UniProt O60885); experiment: BRD4 degradation by Western blot analysis in MDA-MB-231 cells; format: cell-based
# T1 construct: endogenous in cells; host or cells: MDA-MB-231
# Description: In Vitro Biological Validation of PROTACs and Preliminary Assessment of Thermodynamic Aqueous Solubility and Metabolic Stability of Selected BRD4-Degrading PROTACs. With the aim of proving the utility of our platform and the compatibility of the substructures accessible by the MCR strategy with a proximity-based degradation, the ability of our PROTAC candidates to effectively act as BRD4 degraders was tested in the human breast cancer cell line MDA-MB-231, known to express detectable levels of this protein.
# The human breast adenocarcinoma MDA-MB-231 cell line was cultured in DMEM (Sigma-Aldrich) supplemented with 10% fetal bovine serum (FBS), 1% glutamine, and 1% penicillin/streptomycin. For Western blot analysis, […] cells/well were plated into 12-well plates containing DMEM complete growth medium, to be treated with the synthesized compounds, at the indicated concentrations, for different time lengths. After treatments, cells were scraped and lysed to obtain protein extract using RIPA lysis buffer supplemented with protease (PIC, Merck-Millipore) and phosphatase inhibitors (NaF 1 M, Na3VO4 1 M, PMSF […], Sigma-Aldrich). Cells lysates were centrifuged at 13 000 rpm for 10 min at 4 °C to remove membranes and insoluble fractions. Protein quantification of the supernatant fraction was performed with Braford protein assay (Sigma-Aldrich). […] aliquots of protein extracts were used for 12% SDS-PAGE. After transfer into nitrocellulose membranes, BRD4 and tubulin protein levels were evaluated by immunoblotting using a rabbit polyclonal anti-BRD4 (Bethyl Laboratories) and a mouse monoclonal α-tubulin (Sigma-Aldrich) IgG as primary antibodies and an antirabbit or antimouse HRP-conjugated secondary antibody (Bio-Rad Laboratories). Protein levels were detected by chemiluminescent conversion of the HRP substrate LumiGLO (Thermo Fisher Scientific) using the ChemiDoc imaging system (Bio-Rad). Band densitometry was assessed, normalized to α-tubulin immunoreactive bands, and reported as percentage of the 0.3% DMSO control lane.
# [5] = set-up: method as in PMID 28378579; details: cited from earlier work
# [6] = 0.01 N HCl solution, HCl 0.01 N, pH 2.0, 25 °C
# [7] = phosphate-buffered saline, PBS 0.1 M, pH 7.4, 25 °C
compound,measurement,setting,value
"Cc1sc2c(c1C)C(c1ccc(Cl)cc1)=N[C@@H](CC(=O)OCC(=O)NCCCCOc1cccc3c1C(=O)N(C1CCC(=O)NC1=O)C3=O)c1nnc(C)n1-2 (stereo partly drawn) [Compound 37, 2-((4-((2-(2,6-Dioxopiperidin-3-yl)-1,3-dioxoisoindolin-4-yl)oxy)butyl)amino)-2-oxoethyl2-((S)-4-(4-chlorophenyl)-2,3,9-trimethyl-6H-thieno[3,2-f][1,2,4]triazolo[4,3-a][1,4]diazepin-6-yl)acetate]",solubility thermodynamic at 2 h,[1]; [6],18 µM
same,solubility at physiological pH (in words),[1]; pH 7.4,the least soluble
same,solubility thermodynamic at 2 h,[1]; [7],8 µM
same,metabolic stability in MLM (in words),[2],highly stable in MLM
same,melting point,,105.2 to 107 °C (dec.)
O=C1CCC(N2C(=O)c3ccccc3C2=O)C(=O)N1 (stereo not drawn) [thalidomide],hydrolytic degradation,[3],about 30%
"Cc1sc2c(c1C)C(c1ccc(Cl)cc1)=N[C@@H](CC(=O)NCC(=O)NCCCCCOc1cccc3c1C(=O)N(C1CCC(=O)NC1=O)C3=O)c1nnc(C)n1-2 (stereo partly drawn) [Compound 29, 2-((S)-4-(4-Chlorophenyl)-2,3,9-trimethyl-6H-thieno[3,2-f][1,2,4]triazolo[4,3-a][1,4]diazepin-6-yl)-N-(2-((5-((2-(2,6-dioxopiperidin-3-yl)-1,3-dioxoisoindolin-4-yl)oxy)pentyl)amino)-2-oxoethyl)acetamide]",dose-response of BRD4 degradation (in words),"[4]; 100 nM to 10 μM, 8 h, MDA-MB-231 cells",degradation was observed only at 1 and 3 μM concentrations
same,effect of cotreatment with proteasome inhibitor bortezomib on BRD4 degradation,"[4]; 1 μM compound + 5 nM bortezomib, 8 h",abolish BRD4 degradation
same,BRD4 degradation in time-course experiments (in words),"[4]; 1 μM, 4 up to 24 h, MDA-MB-231 cells",decreased expression of BRD4 at all the time-points tested
same,DC50,"[4]; 8 h treatment, MDA-MB-231 cells, from Western blot densitometry",184 nM
same,solubility thermodynamic at 2 h,[1]; [6],39 µM
same,solubility thermodynamic at 2 h,[1]; [7],15 µM
same,melting point,,223.4 to 225.1 °C (dec.)
Cc1sc2c(c1C)C(c1ccc(Cl)cc1)=N[C@@H](CC(=O)NCCCCNC(=O)COc1cccc3c1C(=O)N(C1CCC(=O)NC1=O)C3=O)c1nnc(C)n1-2 (stereo partly drawn) [dBET1],"Thermodynamic aqueous solubility, HCl 0.01 N (pH = 2.0)","[5]; pH 2.0, literature data ref 58",171 ^c μM
same,"Thermodynamic aqueous solubility, PBS 0.1 M (pH = 7.4)","[5]; pH 7.4, literature data ref 58",60 ^c μM
